Results: PubChem BioAssay (NCI)
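Assay format: 96-well plates, 48-hour exposure. GI50 = concentration required for 50% inhibition of growth. The concentration for full growth arrest is given as TGI.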

Columns and labels:
Experiment in all cases: NCI-60 cell line screen, 48 h; in the data active means GI50 below about 0.43 µM; inactive means the rest
A498 renal = system: A498 renal
MDA-MB-231 breast = system: MDA-MB-231 breast
CCRF-CEM leukemia = system: CCRF-CEM leukemia
HOP-92 NSCLC = system: HOP-92 NSCLC
OVCAR-3 ovarian = system: OVCAR-3 ovarian
HS 578T breast = system: HS 578T breast
LOX IMVI melanoma = system: LOX IMVI melanoma
NCI-H522 lung = system: NCI-H522 lung
UO-31 renal = system: UO-31 renal
SF-268 CNS = system: SF-268 CNS
NCI-H460 lung = system: NCI-H460 lung
SK-MEL-5 melanoma = system: SK-MEL-5 melanoma
MOLT-4 leukemia = system: MOLT-4 leukemia
U251 CNS = system: U251 CNS
UACC-257 melanoma = system: UACC-257 melanoma
A549 NSCLC = system: A549 NSCLC
SF-539 CNS = system: SF-539 CNS
ACHN renal = system: ACHN renal
MDA-MB-435 = system: MDA-MB-435
SK-OV-3 ovarian = system: SK-OV-3 ovarian
SNB-75 CNS = system: SNB-75 CNS
NCI-H226 lung = system: NCI-H226 lung
T-47D breast = system: T-47D breast
NCI/ADR-RES ovarian = system: NCI/ADR-RES ovarian
IGROV1 ovarian = system: IGROV1 ovarian
TK-10 renal = system: TK-10 renal
OVCAR-4 ovarian = system: OVCAR-4 ovarian
BT-549 breast = system: BT-549 breast
OVCAR-5 ovarian = system: OVCAR-5 ovarian
HCT-15 colon = system: HCT-15 colon
COLO 205 colon = system: COLO 205 colon
SW-620 colon = system: SW-620 colon
SNB-19 CNS = system: SNB-19 CNS
UACC-62 melanoma = system: UACC-62 melanoma
SF-295 CNS = system: SF-295 CNS
RPMI-8226 leukemia = system: RPMI-8226 leukemia
RXF 393 renal = system: RXF 393 renal
K-562 leukemia = system: K-562 leukemia
HL-60(TB) leukemia = system: HL-60(TB) leukemia
786-0 renal = system: 786-0 renal
HCT-116 colon = system: HCT-116 colon
HCC-2998 colon = system: HCC-2998 colon
MALME-3M melanoma = system: MALME-3M melanoma
HT29 colon = system: HT29 colon
DU-145 prostate = system: DU-145 prostate
PC-3 prostate = system: PC-3 prostate
M14 melanoma = system: M14 melanoma
NCI-H23 lung = system: NCI-H23 lung
OVCAR-8 ovarian = system: OVCAR-8 ovarian
SK-MEL-2 melanoma = system: SK-MEL-2 melanoma
SR leukemia = system: SR leukemia
SK-MEL-28 melanoma = system: SK-MEL-28 melanoma
SN12C renal = system: SN12C renal
HOP-62 NSCLC = system: HOP-62 NSCLC
MCF7 breast = system: MCF7 breast
KM12 colon = system: KM12 colon

CC(C)CNC(=O)c1ccc(NC(=O)N(CC(C)C)C(=O)c2ccc(N)c(OCCCN)c2)c(OCCCN=C(N)N)c1
inactive: GI50 (A498 renal) > 62.5 µM | GI50 (MDA-MB-231 breast) > 62.5 µM | GI50 (CCRF-CEM leukemia) > 62.5 µM | GI50 (HOP-92 NSCLC) > 62.5 µM | GI50 (OVCAR-3 ovarian) > 62.5 µM | GI50 (HS 578T breast) > 62.5 µM | GI50 (LOX IMVI melanoma) > 62.5 µM | GI50 (NCI-H522 lung) > 62.5 µM | GI50 (UO-31 renal) > 62.5 µM | GI50 (SF-268 CNS) > 62.5 µM | GI50 (NCI-H460 lung) > 62.5 µM | GI50 (SK-MEL-5 melanoma) > 62.5 µM | GI50 (MOLT-4 leukemia) > 62.5 µM | GI50 (U251 CNS) > 62.5 µM | GI50 (UACC-257 melanoma) > 62.5 µM | GI50 (A549 NSCLC) > 62.5 µM | GI50 (SF-539 CNS) > 62.5 µM | GI50 (ACHN renal) > 62.5 µM | GI50 (MDA-MB-435) > 62.5 µM | GI50 (SK-OV-3 ovarian) > 62.5 µM | GI50 (SNB-75 CNS) > 62.5 µM | GI50 (NCI-H226 lung) > 62.5 µM | GI50 (T-47D breast) > 62.5 µM | GI50 (NCI/ADR-RES ovarian) > 62.5 µM | GI50 (IGROV1 ovarian) > 62.5 µM | GI50 (TK-10 renal) > 62.5 µM | GI50 (OVCAR-4 ovarian) > 62.5 µM | GI50 (BT-549 breast) > 62.5 µM | GI50 (OVCAR-5 ovarian) > 62.5 µM | GI50 (HCT-15 colon) > 62.5 µM | GI50 (COLO 205 colon) > 62.5 µM | GI50 (SW-620 colon) > 62.5 µM | GI50 (SNB-19 CNS) > 62.5 µM | GI50 (UACC-62 melanoma) > 62.5 µM | GI50 (SF-295 CNS) > 62.5 µM | GI50 (RPMI-8226 leukemia) > 62.5 µM | GI50 (RXF 393 renal) > 62.5 µM | GI50 (K-562 leukemia) > 62.5 µM | GI50 (HL-60(TB) leukemia) > 62.5 µM | GI50 (786-0 renal) > 62.5 µM | GI50 (HCT-116 colon) > 62.5 µM | GI50 (HCC-2998 colon) > 62.5 µM | GI50 (MALME-3M melanoma) > 62.5 µM | GI50 (HT29 colon) > 62.5 µM | GI50 (DU-145 prostate) > 62.5 µM | GI50 (PC-3 prostate) > 62.5 µM | GI50 (M14 melanoma) > 62.5 µM | GI50 (NCI-H23 lung) > 62.5 µM | GI50 (OVCAR-8 ovarian) > 62.5 µM | GI50 (SK-MEL-2 melanoma) > 62.5 µM | GI50 (SR leukemia) > 62.5 µM | GI50 (SK-MEL-28 melanoma) > 62.5 µM | GI50 (SN12C renal) > 62.5 µM | GI50 (HOP-62 NSCLC) > 62.5 µM | GI50 (MCF7 breast) > 62.5 µM | GI50 (KM12 colon) > 62.5 µM
> 62.5 µM: TGI (A498 renal) | TGI (MDA-MB-231 breast) | TGI (CCRF-CEM leukemia) | TGI (HOP-92 NSCLC) | TGI (OVCAR-3 ovarian) | TGI (HS 578T breast) | TGI (LOX IMVI melanoma) | TGI (NCI-H522 lung) | TGI (UO-31 renal) | TGI (SF-268 CNS) | TGI (NCI-H460 lung) | TGI (SK-MEL-5 melanoma) | TGI (MOLT-4 leukemia) | TGI (U251 CNS) | TGI (UACC-257 melanoma) | TGI (A549 NSCLC) | TGI (SF-539 CNS) | TGI (ACHN renal) | TGI (MDA-MB-435) | TGI (SK-OV-3 ovarian) | TGI (SNB-75 CNS) | TGI (NCI-H226 lung) | TGI (T-47D breast) | TGI (NCI/ADR-RES ovarian) | TGI (IGROV1 ovarian) | TGI (TK-10 renal) | TGI (OVCAR-4 ovarian) | TGI (BT-549 breast) | TGI (OVCAR-5 ovarian) | TGI (HCT-15 colon) | TGI (COLO 205 colon) | TGI (SW-620 colon) | TGI (SNB-19 CNS) | TGI (UACC-62 melanoma) | TGI (SF-295 CNS) | TGI (RPMI-8226 leukemia) | TGI (RXF 393 renal) | TGI (K-562 leukemia) | TGI (HL-60(TB) leukemia) | TGI (786-0 renal) | TGI (HCT-116 colon) | TGI (HCC-2998 colon) | TGI (MALME-3M melanoma) | TGI (HT29 colon) | TGI (DU-145 prostate) | TGI (PC-3 prostate) | TGI (M14 melanoma) | TGI (NCI-H23 lung) | TGI (OVCAR-8 ovarian) | TGI (SK-MEL-2 melanoma) | TGI (SR leukemia) | TGI (SK-MEL-28 melanoma) | TGI (SN12C renal) | TGI (HOP-62 NSCLC) | TGI (MCF7 breast) | TGI (KM12 colon)
